We go through nine compounds from ChEMBL document CHEMBL1909046, “DrugMatrix in vitro pharmacology data”.

In one test the target is T1, Glucocorticoid receptor (Homo sapiens, UniProt P04150). Also: in other assays of this panel Not Active means under 50% inhibition at 10 µM.
T1 sequence (P04150 whole entry): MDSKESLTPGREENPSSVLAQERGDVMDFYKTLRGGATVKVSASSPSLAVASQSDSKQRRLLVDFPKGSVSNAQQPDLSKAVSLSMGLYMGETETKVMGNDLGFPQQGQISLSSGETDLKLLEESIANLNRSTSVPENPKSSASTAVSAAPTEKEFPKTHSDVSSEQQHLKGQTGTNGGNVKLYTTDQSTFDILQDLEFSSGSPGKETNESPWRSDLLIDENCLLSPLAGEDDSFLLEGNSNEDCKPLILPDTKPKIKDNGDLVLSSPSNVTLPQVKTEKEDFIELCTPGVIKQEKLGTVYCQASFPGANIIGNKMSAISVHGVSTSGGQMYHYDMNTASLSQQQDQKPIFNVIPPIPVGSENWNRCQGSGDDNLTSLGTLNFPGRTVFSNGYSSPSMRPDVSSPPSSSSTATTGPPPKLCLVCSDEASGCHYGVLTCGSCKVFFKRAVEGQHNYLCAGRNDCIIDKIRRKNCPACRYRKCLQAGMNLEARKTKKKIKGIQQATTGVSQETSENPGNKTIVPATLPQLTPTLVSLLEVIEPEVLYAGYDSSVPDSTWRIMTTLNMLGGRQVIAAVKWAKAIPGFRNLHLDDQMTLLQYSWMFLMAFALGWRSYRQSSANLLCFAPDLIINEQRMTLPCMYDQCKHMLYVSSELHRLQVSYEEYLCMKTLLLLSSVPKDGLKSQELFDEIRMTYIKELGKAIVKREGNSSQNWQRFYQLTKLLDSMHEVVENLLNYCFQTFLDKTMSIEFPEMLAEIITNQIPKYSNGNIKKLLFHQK
The following applies: hela s3.

Test [1] can be described thus: DRUGMATRIX: Leukotriene, BLT (LTB4) radioligand binding (ligand: [3H]LTB4). Format: cell membranes, Membrane. The following applies: u-937, Not Active = under 50% inhibition at 10 µM.
The target in test [2] is T2, Amine oxidase [flavin-containing] A (Homo sapiens, UniProt P21397).
T2 sequence (P21397 whole entry): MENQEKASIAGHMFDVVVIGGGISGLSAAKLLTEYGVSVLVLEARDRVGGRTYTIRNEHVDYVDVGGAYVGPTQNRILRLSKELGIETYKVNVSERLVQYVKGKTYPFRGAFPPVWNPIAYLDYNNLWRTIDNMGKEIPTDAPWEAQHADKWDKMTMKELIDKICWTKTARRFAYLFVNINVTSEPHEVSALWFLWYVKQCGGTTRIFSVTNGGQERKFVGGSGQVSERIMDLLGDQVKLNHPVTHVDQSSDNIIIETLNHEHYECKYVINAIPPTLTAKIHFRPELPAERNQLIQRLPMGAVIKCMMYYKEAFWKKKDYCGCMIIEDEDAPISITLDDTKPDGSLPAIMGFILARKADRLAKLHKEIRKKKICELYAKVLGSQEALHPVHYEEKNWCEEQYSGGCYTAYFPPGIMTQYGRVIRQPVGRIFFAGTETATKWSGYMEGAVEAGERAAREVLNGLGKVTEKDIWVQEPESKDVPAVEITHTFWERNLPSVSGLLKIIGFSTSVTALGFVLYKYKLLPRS
The test is described as follows: DRUGMATRIX: Monoamine Oxidase MAO-A enzyme inhibition (substrate: Kynuramine). More on the design: species or system BTI-TN-5B1-4. The following applies: Not Active = under 50% inhibition at 10 µM.

Test [3] concerns the target C-C chemokine receptor type 2 (Homo sapiens, UniProt P41597). Format: cell membranes, Membrane. The following applies: cho-k1. Also: in other assays of this panel Not Active means under 50% inhibition at 10 µM.
For test [4], the target named is T3, C-X-C chemokine receptor type 1 (Homo sapiens, UniProt P25024). Also: in other assays of this panel Not Active means under 50% inhibition at 10 µM.
T3 sequence (P25024 whole entry): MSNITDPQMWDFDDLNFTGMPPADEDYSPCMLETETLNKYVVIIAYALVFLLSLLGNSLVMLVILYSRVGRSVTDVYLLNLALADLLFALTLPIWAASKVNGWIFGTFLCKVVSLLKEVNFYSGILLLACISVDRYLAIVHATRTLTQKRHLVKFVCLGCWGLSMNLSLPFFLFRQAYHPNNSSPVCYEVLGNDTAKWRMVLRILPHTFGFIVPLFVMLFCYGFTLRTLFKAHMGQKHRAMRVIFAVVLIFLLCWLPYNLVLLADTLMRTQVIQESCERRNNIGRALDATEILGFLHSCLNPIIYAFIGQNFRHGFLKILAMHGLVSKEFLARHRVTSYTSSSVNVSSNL

Test [5] addresses T4, Cysteinyl leukotriene receptor 1 (Homo sapiens, UniProt Q9Y271).
T4 sequence (Q9Y271 whole entry): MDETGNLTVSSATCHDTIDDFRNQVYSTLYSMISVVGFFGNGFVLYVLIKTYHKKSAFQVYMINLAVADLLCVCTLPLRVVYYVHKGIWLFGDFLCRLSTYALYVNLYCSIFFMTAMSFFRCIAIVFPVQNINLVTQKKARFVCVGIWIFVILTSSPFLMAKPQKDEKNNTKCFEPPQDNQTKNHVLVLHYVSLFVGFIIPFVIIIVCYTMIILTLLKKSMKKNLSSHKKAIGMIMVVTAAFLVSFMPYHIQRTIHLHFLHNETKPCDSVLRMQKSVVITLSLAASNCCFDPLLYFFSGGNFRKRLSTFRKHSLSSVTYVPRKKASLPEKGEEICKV
The class given is cell membranes, Membrane. The following applies: cho-k1.

In the next test the target is Insulin receptor (Rattus norvegicus, UniProt P15127). The class given is cell membranes, Wistar, Liver, Membrane. Also: in other assays of this panel Not Active means under 50% inhibition at 10 µM.
The target in test [6] is T5, Type-2 angiotensin II receptor (Homo sapiens, UniProt P50052). Also: in other assays of this panel Not Active means under 50% inhibition at 10 µM.
T5 sequence (P50052 whole entry): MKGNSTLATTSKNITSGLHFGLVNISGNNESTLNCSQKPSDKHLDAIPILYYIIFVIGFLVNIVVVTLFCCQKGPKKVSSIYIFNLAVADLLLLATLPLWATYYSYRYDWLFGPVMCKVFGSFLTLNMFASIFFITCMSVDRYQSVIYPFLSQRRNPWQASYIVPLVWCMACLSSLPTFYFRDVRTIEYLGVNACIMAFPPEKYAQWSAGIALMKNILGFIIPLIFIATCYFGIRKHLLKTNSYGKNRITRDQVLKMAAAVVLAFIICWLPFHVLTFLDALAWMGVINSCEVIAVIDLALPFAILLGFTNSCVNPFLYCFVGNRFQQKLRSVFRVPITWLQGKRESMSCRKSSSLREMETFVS
Kind of test: biochemical. The following applies: cho-k1. The class given is cell-based, CHO-K1.

C-C chemokine receptor type 2, sequence (P41597 whole entry): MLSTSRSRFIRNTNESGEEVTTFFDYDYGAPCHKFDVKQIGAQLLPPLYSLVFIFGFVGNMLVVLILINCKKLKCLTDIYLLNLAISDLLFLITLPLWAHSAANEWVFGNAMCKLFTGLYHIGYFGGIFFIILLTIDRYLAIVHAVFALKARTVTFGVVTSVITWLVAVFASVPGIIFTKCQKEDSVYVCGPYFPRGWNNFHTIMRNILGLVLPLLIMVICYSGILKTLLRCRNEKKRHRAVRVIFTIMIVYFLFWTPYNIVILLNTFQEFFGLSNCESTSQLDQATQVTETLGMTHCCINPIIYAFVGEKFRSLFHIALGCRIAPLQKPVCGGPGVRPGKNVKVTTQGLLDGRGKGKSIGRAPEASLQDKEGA
Insulin receptor, sequence (P15127 27-759 limits assumed): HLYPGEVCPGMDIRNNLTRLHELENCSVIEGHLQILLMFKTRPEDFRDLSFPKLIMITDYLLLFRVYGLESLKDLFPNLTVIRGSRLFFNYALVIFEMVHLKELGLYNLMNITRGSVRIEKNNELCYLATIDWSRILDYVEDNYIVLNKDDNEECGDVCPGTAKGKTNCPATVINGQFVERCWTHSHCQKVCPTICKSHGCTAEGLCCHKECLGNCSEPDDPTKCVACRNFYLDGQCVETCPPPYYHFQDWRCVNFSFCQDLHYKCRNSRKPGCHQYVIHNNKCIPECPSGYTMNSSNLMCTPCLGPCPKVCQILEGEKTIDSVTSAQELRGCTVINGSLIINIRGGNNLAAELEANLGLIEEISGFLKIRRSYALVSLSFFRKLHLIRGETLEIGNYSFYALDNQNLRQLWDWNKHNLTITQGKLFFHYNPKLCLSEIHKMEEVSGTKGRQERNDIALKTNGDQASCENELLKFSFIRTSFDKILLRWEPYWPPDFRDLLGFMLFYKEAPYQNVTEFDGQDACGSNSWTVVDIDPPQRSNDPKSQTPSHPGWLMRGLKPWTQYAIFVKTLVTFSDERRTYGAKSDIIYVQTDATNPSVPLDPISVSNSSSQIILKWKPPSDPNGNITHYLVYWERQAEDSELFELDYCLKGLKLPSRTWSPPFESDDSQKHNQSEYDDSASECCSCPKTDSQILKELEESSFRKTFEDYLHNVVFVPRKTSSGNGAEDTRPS
Insulin receptor, sequence (P15127 764-1383 limits assumed): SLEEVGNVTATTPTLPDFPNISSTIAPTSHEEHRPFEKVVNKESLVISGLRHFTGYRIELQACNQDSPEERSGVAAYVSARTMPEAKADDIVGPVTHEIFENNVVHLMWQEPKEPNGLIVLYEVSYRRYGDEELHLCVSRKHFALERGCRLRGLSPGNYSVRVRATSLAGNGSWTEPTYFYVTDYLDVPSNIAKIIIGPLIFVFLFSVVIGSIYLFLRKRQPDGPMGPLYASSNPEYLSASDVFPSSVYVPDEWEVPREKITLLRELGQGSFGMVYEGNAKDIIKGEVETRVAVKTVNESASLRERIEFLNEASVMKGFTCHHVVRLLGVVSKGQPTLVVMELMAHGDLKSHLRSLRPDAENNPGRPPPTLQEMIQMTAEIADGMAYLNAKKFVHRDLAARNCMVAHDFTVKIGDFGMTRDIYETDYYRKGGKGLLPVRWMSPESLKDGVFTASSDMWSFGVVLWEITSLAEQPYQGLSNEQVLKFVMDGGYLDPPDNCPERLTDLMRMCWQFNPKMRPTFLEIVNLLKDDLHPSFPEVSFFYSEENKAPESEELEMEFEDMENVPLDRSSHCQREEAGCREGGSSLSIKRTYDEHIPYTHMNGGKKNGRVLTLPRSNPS

On to `C[C@@H]1C/C=C/C=C/C=C/C=C/[C@H](O[C@@H]2O[C@H](C)[C@@H](O)[C@H](N)[C@@H]2O)C[C@@H]2O[C@](O)(C[C@@H](O)C[C@H]3O[C@@H]3/C=C/C(=O)O1)C[C@H](O)[C@H]2C(=O)O` [NATAMYCIN], for which the IC50 entry (at Glucocorticoid receptor; in test [1]; in test [2] (bti-tn-5b1-4); in test [3]; in test [4]; in test [5]) was “Not Active” each time. Further, the IC50 result (on Insulin receptor; in test [6]) was “Not Active” each time. Moreover, in test [1], the Ki (as a rule, a measure of affinity in units of concentration, obtained from inhibition or displacement) is recorded as “Not Active”.
As for `CN(C)C(=O)Oc1cccc([N+](C)(C)C)c1.[Br-]` [NEOSTIGMINE BROMIDE], the IC50 result (against Glucocorticoid receptor; in test [1]; in test [2] (bti-tn-5b1-4); in test [3]; in test [4]; in test [5]) was “Not Active” in each case. In addition, the IC50 entry (on Insulin receptor; in test [6]) was “Not Active” each time. Moreover, the Ki entry in test [1] is “Not Active”.
For `NC(=O)c1cccnc1` [NIACINAMIDE], the IC50 result (against Glucocorticoid receptor; in test [1]; in test [2] (bti-tn-5b1-4); in test [3]; in test [4]; in test [5]) was “Not Active” in each case. Besides, the IC50 result (against Insulin receptor; in test [6]) was “Not Active” each time. Further, the Ki entry in test [1] is “Not Active”.
For `CN1C(=O)CN=C(c2ccccc2)c2cc([N+](=O)[O-])ccc21` [NIMETAZEPAM], the 50% inhibitory concentration (IC50) entry (against Glucocorticoid receptor; in test [1]; in test [2] (bti-tn-5b1-4); in test [3]; in test [4]; in test [5]) was “Not Active” in each case. For the same compound, the IC50 entry (against Insulin receptor; in test [6]) was “Not Active” throughout. Besides, in test [1], the Ki entry was “Not Active”.
With `COc1ccc2c(c1OC)C(=O)O[C@@H]2[C@H]1c2c(cc3c(c2OC)OCO3)CCN1C` [NOSCAPINE], the IC50 entry (against Glucocorticoid receptor; in test [1]; in test [2] (bti-tn-5b1-4); in test [3]; in test [4]; in test [5]) was “Not Active” throughout. In addition, the IC50 result (on Insulin receptor; in test [6]) was “Not Active” in each case. In test [1], the inhibitory constant (Ki) entry is “Not Active”.
In the case of `C[C@@H]1O[C@@H](O[C@H]2C[C@@H](O)[C@]3(CO)[C@H]4[C@H](O)C[C@]5(C)[C@@H](C6=CC(=O)OC6)CC[C@]5(O)[C@@H]4CC[C@]3(O)C2)[C@H](O)[C@H](O)[C@H]1O` [OUABAIN], the concentration for half-maximal inhibition (IC50) result (against Glucocorticoid receptor; in test [1]; in test [2] (bti-tn-5b1-4); in test [3]; in test [4]; in test [5]) was “Not Active” each time. The IC50 entry (against Insulin receptor; in test [6]) was “Not Active” in each case. Also, the Ki entry in test [1] was “Not Active”.
For `COc1ccnc(C[S+]([O-])c2nc3ccc(OC(F)F)cc3[nH]2)c1OC` (stereo unspecified) [PANTOPRAZOLE], the IC50 result (on Glucocorticoid receptor; in test [1]; in test [2] (bti-tn-5b1-4); in test [3]; in test [4]; in test [5]) was “Not Active” each time. In addition, the IC50 entry (against Insulin receptor; in test [6]) was “Not Active” each time. The Ki result in test [1] is recorded as “Not Active”.
Consider `N=C(N)c1ccc(OCCCCCOc2ccc(C(=N)N)cc2)cc1` [PENTAMIDINE], for which the 50% inhibitory concentration (IC50) (commonly the midpoint of a concentration-inhibition curve) against Glucocorticoid receptor is “Not Active”; in test [1] (read-out: IC50), 0.242 µM; in test [2] (read-out: IC50), 0.793 µM; in test [3], “Not Active”; in test [4], “Not Active”; in test [5], “Not Active”. Besides, the half-maximal inhibitory concentration (IC50) entry (at Insulin receptor; in test [6]) was “Not Active” in each case. In test [1] (read-out: Ki), the Ki was 0.061 µM.
Take `CCc1ccc(CCOc2ccc(CC3SC(=O)NC3=O)cc2)nc1` (stereo unspecified) [PIOGLITAZONE]: the IC50 entry against Glucocorticoid receptor was “Not Active”; in test [1] (read-out: IC50), 86.9 µM; in test [2] (read-out: IC50), 35.1 µM; in test [3], “Not Active”; in test [4], “Not Active”; in test [5] it was “Not Active”. Besides, the IC50 entry (at Insulin receptor; in test [6]) was “Not Active” each time. In addition, the Ki in test [1] (read-out: Ki) worked out at 22.1 µM.
